# Experimental data from PMC11536310, “Evaluation of STK17B as a cancer immunotherapy target utilizing highly potent and selective small molecule inhibitors” (Frontiers in Immunology, 2024).
# Tested on: phospho-myosin light chain 2 (pMLC2) S19
# Assay: pMLC2 flow cytometry assay in mouse whole blood in vitro
# Assay type: cell-based
# Conditions: ROCK1/2 inhibitor added to top concentration (30 µM) of BLU4565
smiles,measurement,value
CC1=C(C(=O)Nc2cc3cn[nH]c3cc2F)C(c2ccc(C(F)(F)F)cc2)CC(=O)N1 (stereo not shown) [GSK429286A],further reduction of pMLC2 median fluorescence intensity signal compared with BLU4565 alone,Minimal further reduction
